≈ marks a conversion by molar mass, not a printed value. Calls of active or inactive are those of the source. No cut-off for these calls is given here.
Key:
Madurella mycetomatis [1] = assay: Antifungal activity against Madurella mycetomatis MM55 at 100 uM by XTT assay; format: functional, organism-based
Madurella mycetomatis [2] = assay: Antifungal activity against Madurella mycetomatis MM55 at 25 uM by XTT assay; format: functional, organism-based
Madurella mycetomatis [3] = assay: Antifungal activity against Madurella mycetomatis MM55 by XTT assay; format: functional, organism-based
Madurella mycetomatis [4] = assay: Antifungal activity against Madurella mycetomatis SO1 by XTT assay; format: functional
Madurella mycetomatis [5] = assay: Antifungal activity against Madurella mycetomatis I1 by XTT assay; format: functional
Madurella mycetomatis [6] = assay: Antifungal activity against Madurella mycetomatis I3 by XTT assay; format: functional
Madurella mycetomatis [7] = assay: Antifungal activity against Madurella mycetomatis I11 by XTT assay; format: functional
Madurella mycetomatis [8] = assay: Antifungal activity against Madurella mycetomatis P1 by XTT assay; format: functional
Madurella mycetomatis [9] = assay: Antifungal activity against Madurella mycetomatis Peru72012 by XTT assay; format: functional
Madurella mycetomatis [10] = assay: Antifungal activity against Madurella mycetomatis AL1 by XTT assay; format: functional
Madurella mycetomatis [11] = assay: Antifungal activity against Madurella mycetomatis CBS247.48 by XTT assay; format: functional
Madurella mycetomatis [12] = assay: Antifungal activity against Madurella mycetomatis MM50 by XTT assay; format: functional
[13] = Cytotoxicity against mouse NIH3T3 cells incubated for 5 days by MTT assay; format: toxicity, cell-based
[14] = Selectivity index, ratio of IC50 for mouse NIH3T3 cells to IC50 for Madurella mycetomatis MM55; format: toxicity; conditions: read-out: Ratio IC50

Compound: CN1CCN(c2cc(-c3cccnc3)c3nc(-c4cccc(F)c4)cn3n2)CC1
- Activity (Madurella mycetomatis [1]): Active
- Activity (Madurella mycetomatis [2]): Active
- IC50 (Madurella mycetomatis [3]; Madurella mycetomatis, MM55): 11.7 µM

Compound: CN1CCN(c2cc(-c3cccc4[nH]ccc34)c3nc(-c4ccc(F)cc4)cn3n2)CC1 [listing 1 of 2 here]
- Activity (Madurella mycetomatis [1]): Active
- Activity (Madurella mycetomatis [2]): Active

Compound: CN1CCN(c2cc(-c3cccnc3)c3nc(-c4ccc(F)cc4)cn3n2)CC1
- Activity (Madurella mycetomatis [1]): Active
- Activity (Madurella mycetomatis [2]): Active
- IC50 (Madurella mycetomatis [3]; Madurella mycetomatis, MM55): > 16 µM

Compound: CN1CCN(c2cc(-c3ccnn3C)c3nc(-c4ccc(F)cc4)cn3n2)CC1
- Activity (Madurella mycetomatis [1]): Active
- Activity (Madurella mycetomatis [2]): inactive

Compound: CN1CCN(c2cc(-c3ccncc3)c3nc(-c4ccc(F)cc4)cn3n2)CC1
- Activity (Madurella mycetomatis [1]): Active
- Activity (Madurella mycetomatis [2]): inactive

Compound: CN1CCN(c2cc(-c3cccc4[nH]ccc34)c3nc(-c4ccccc4)cn3n2)CC1
- Activity (Madurella mycetomatis [1]): Active
- Activity (Madurella mycetomatis [2]): Active

Compound: CN1CCN(c2cc(-c3ccsc3)c3nc(-c4ccc(F)cc4)cn3n2)CC1
- Activity (Madurella mycetomatis [1]): Active
- Activity (Madurella mycetomatis [2]): Active

Compound: CN1CCN(c2cc(-c3ccccc3)c3nc(-c4ccc(F)cc4)cn3n2)CC1
- Activity (Madurella mycetomatis [1]): inactive
- Activity (Madurella mycetomatis [2]): inactive

Compound: CN1CCN(c2cc(-c3cccnc3)c3nc(-c4ccccc4F)cn3n2)CC1
- Activity (Madurella mycetomatis [1]): Active
- Activity (Madurella mycetomatis [2]): Active
- IC50 (Madurella mycetomatis [3]; Madurella mycetomatis, MM55): 11.5 µM

Compound: CN1CCN(c2cc(-c3cnn(C)c3)c3nc(-c4ccc(F)cc4)cn3n2)CC1
- Activity (Madurella mycetomatis [1]): Active
- Activity (Madurella mycetomatis [2]): Active

Compound: CN1CCN(c2cc(-c3ccoc3)c3nc(-c4ccc(F)cc4)cn3n2)CC1
- Activity (Madurella mycetomatis [1]): Active
- Activity (Madurella mycetomatis [2]): inactive

Compound: CN1CCN(c2cc(-c3cnc(N4CCN(C)CC4)nc3)c3nc(-c4ccccc4)cn3n2)CC1
- IC50 (Madurella mycetomatis [3]; Madurella mycetomatis, MM55): 2 µM
- MIC (Madurella mycetomatis [3]; Madurella mycetomatis, MM55): 2 µM (≈ 0.939 µg/mL)
- MIC (Madurella mycetomatis [4]): 16 µM (≈ 7.51 µg/mL)
- MIC (Madurella mycetomatis [5]): 8 µM (≈ 3.76 µg/mL)
- MIC (Madurella mycetomatis [6]): 8 µM (≈ 3.76 µg/mL)
- MIC (Madurella mycetomatis [7]): 8 µM (≈ 3.76 µg/mL)
- MIC (Madurella mycetomatis [8]): 8 µM (≈ 3.76 µg/mL)
- MIC (Madurella mycetomatis [9]): 8 µM (≈ 3.76 µg/mL)
- MIC (Madurella mycetomatis [10]): 8 µM (≈ 3.76 µg/mL)
- MIC (Madurella mycetomatis [11]): 8 µM (≈ 3.76 µg/mL)
- MIC (Madurella mycetomatis [12]): 8 µM (≈ 3.76 µg/mL)
- IC50 at 5 days [13]: 14.3 µM
- selectivity ratio [14]: 16

Compound: CN1CCN(c2cc(-c3cccc4[nH]ccc34)c3nc(-c4ccc(F)cc4)cn3n2)CC1 [listing 2 of 2 here]
- IC50 (Madurella mycetomatis [3]): 1.7 µM
- MIC (Madurella mycetomatis [3]; Madurella mycetomatis, MM55): 8 µM (≈ 3.41 µg/mL)
- MIC (Madurella mycetomatis [4]): 16 µM (≈ 6.82 µg/mL)
- MIC (Madurella mycetomatis [5]): 8 µM (≈ 3.41 µg/mL)
- MIC (Madurella mycetomatis [6]): 8 µM (≈ 3.41 µg/mL)
- MIC (Madurella mycetomatis [7]): 8 µM (≈ 3.41 µg/mL)
- MIC (Madurella mycetomatis [8]): 8 µM (≈ 3.41 µg/mL)
- MIC (Madurella mycetomatis [9]): 8 µM (≈ 3.41 µg/mL)
- MIC (Madurella mycetomatis [10]): 8 µM (≈ 3.41 µg/mL)
- MIC (Madurella mycetomatis [11]): 8 µM (≈ 3.41 µg/mL)
- MIC (Madurella mycetomatis [12]): 8 µM (≈ 3.41 µg/mL)
- IC50 at 5 days [13]: 12.9 µM
- selectivity ratio [14]: 7.5

Compound: CN1CCN(c2cc(Br)c3nc(-c4ccc(F)cc4)cn3n2)CC1
- Activity (Madurella mycetomatis [1]): inactive
- Activity (Madurella mycetomatis [2]): inactive

Compound: CN1CCN(c2cc(-c3ccsc3)c3nc(-c4cccc(F)c4)cn3n2)CC1
- IC50 (Madurella mycetomatis [3]; Madurella mycetomatis, MM55): 2.1 µM
- MIC (Madurella mycetomatis [3]; Madurella mycetomatis, MM55): 8 µM (≈ 3.15 µg/mL)
- MIC (Madurella mycetomatis [4]): 8 µM (≈ 3.15 µg/mL)
- MIC (Madurella mycetomatis [5]): 8 µM (≈ 3.15 µg/mL)
- MIC (Madurella mycetomatis [6]): 8 µM (≈ 3.15 µg/mL)
- MIC (Madurella mycetomatis [7]): 8 µM (≈ 3.15 µg/mL)
- MIC (Madurella mycetomatis [8]): 8 µM (≈ 3.15 µg/mL)
- MIC (Madurella mycetomatis [9]): 8 µM (≈ 3.15 µg/mL)
- MIC (Madurella mycetomatis [10]): 8 µM (≈ 3.15 µg/mL)
- MIC (Madurella mycetomatis [11]): 8 µM (≈ 3.15 µg/mL)
- MIC (Madurella mycetomatis [12]): 8 µM (≈ 3.15 µg/mL)
- IC50 at 5 days [13]: 11.9 µM
- selectivity ratio [14]: 2.5
